Laboratory results published in article PMC6765698 (CPT: Pharmacometrics & Systems Pharmacology, 2019).
Converted amounts (≈) assume the structure as drawn. Like-named read-outs stand apart in the source and are kept apart here.

Key:
[1] = Octanol-water partition coefficient logP / logD; type: physicochemical
[2] = Acid dissociation constant pKa; type: physicochemical; conditions: mean measured, WG, monoprotic base
[3] = Equilibrium solubility in aqueous and bio-relevant media; type: physicochemical; conditions: fed state simulated intestinal fluid, pH 5.0
[4] = WG PBPK model; set-up: species or system human
[5] = pH 1.1; ADAM model input; ref Taupitz 2013 42; cited from earlier work
[6] = 100 mg i.v. dose; cited from earlier work
[7] = target: T1, CYP3A4 (Homo sapiens, UniProt P08684); experiment: Enzyme kinetics; conditions: human liver microsomes
[8] = Fraction unbound in human liver microsomes; type: in vitro ADME; conditions: equilibrium dialysis at 0.05-[…], calculated at […], WG
[9] = target: T1, CYP3A4; type: biochemical
[10] = tube adsorption method; ref Isoherranen 2004 (34); cited from earlier work
[11] = Blood/plasma partition ratio; type: in vitro ADME; conditions: WG
[12] = first-order absorption model, capsule fasted, adjusted to fit observed data

T1 sequence (P08684 whole entry): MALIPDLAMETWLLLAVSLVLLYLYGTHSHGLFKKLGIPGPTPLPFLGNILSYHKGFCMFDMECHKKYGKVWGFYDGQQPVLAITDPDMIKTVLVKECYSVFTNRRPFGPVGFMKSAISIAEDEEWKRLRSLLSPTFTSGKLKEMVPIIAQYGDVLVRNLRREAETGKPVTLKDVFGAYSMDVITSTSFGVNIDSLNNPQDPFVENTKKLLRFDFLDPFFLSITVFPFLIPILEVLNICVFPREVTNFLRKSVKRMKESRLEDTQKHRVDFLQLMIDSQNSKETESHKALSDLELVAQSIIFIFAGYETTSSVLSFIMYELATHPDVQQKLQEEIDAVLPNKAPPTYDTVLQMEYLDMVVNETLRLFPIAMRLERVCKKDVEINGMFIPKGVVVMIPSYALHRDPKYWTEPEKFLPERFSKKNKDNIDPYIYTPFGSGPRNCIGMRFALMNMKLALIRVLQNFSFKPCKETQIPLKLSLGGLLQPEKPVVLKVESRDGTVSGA

CCC(C)n1ncn(-c2ccc(N3CCN(c4ccc(OCC5COC(Cn6cncn6)(c6ccc(Cl)cc6Cl)O5)cc4)CC3)cc2)c1=O (stereo not shown) [ITZ, itraconazole]
logP [1]: 4.9
pKa [2]: 3.64
Solubility in FeSSIF [3]: 5 µg/mL (≈ 7.09 µM)
Active uptake into hepatocyte (scaling factor) ([4]; estimated to best describe ITZ IV CL): 3.5
Fa [4, 12]: 0.5
ka [4, 12]: 0.2 h⁻¹
Intrinsic solubility [5]: 150 µg/mL
CL observed in vivo [6]: ~ 21 L/hour
Km [7]: 0.0233 µM

O=c1[nH]ncn1-c1ccc(N2CCN(c3ccc(OCC4COC(Cn5cncn5)(c5ccc(Cl)cc5Cl)O4)cc3)CC2)cc1 (stereo not shown) [ND-ITZ]
fu,mic ([…] HLM) [8]: 0.70
Fold less potent than previously reported (CYP3A4 inhibition) ([9]; apparent Ki in microsomes with WG fu,mic vs literature): approximately 40 fold
fu,mic ([…] HLM) [10]: 0.026

CC(O)C(C)n1ncn(-c2ccc(N3CCN(c4ccc(OCC5COC(Cn6cncn6)(c6ccc(Cl)cc6Cl)O5)cc4)CC3)cc2)c1=O (stereo not shown) [OH-ITZ, hydroxyitraconazole]
logP [1]: 4.1
pKa ([2]; pKa): 4
B/P [11]: 0.55
Ki [9]: 8.2 nM
